For 29 compounds, IC50 results are on record in patent US9062048B2, “Cyclohexyl-azetidinyl antagonists of CCR2” (Janssen Pharmaceutica NV, priority 2010, dated 2015).

Some results are limits rather than exact numbers.

The target in the test is CCR2 (Homo sapiens (Human), UniProt P41597). The experiment in a line: MCP-1 Receptor Binding Assay in THP-1 Cells.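 Further: THP-1 is a human monocytic cell line, and nonspecific binding was defined with 1 µM unlabeled MCP-1.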 As to conditions: 0.5 nM 125I labeled MCP-1, 2 hours at 30° C., read-out: Inhibition of MCP-1 Binding IC50 MCP1B.
CCR2, sequence (P41597 whole entry): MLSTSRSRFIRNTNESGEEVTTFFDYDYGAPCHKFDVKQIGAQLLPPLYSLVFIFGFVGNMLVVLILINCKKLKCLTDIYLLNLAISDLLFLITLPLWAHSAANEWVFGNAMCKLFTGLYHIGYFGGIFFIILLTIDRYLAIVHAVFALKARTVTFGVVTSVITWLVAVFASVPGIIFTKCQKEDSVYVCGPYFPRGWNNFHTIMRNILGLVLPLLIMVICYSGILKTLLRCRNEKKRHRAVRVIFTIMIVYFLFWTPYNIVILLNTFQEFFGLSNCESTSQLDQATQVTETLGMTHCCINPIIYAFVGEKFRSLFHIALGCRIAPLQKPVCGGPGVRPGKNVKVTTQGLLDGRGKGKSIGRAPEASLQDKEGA

For orientation: IC50 means the concentration that gives 50% inhibition. For the compound `CC(C)[C@@H](O)[C@H]1CC[C@H](N2CC(NC(=O)CNc3cnnc4ccc(C(F)(F)F)cc34)C2)CC1` (racemic) [Example 158, N-(1-((1R,4r)-4-((R)-1-hydroxy-2-methylpropyl)cyclohexyl)azetidin-3-yl)-2-((6-(trifluoromethyl)cinnolin-4-yl)amino)acetamide], the half-inhibitory concentration (IC50) came to 2560 nM.

`CC(C)[C@@H](O)[C@H]1CC[C@@H](N2CC(NC(=O)CNc3nncc4ccc(C(F)(F)F)cc34)C2)CC1` (racemic) [Example 159, N-(1-((1R,4s)-4-((S)-1-hydroxy-2-methylpropyl)cyclohexyl)azetidin-3-yl)-2-((7-(trifluoromethyl)phthalazin-1-yl)amino)acetamide]: the IC50 was 8290 nM. With `CC(C)[C@H](O)[C@H]1CC[C@H](N2CC(NC(=O)CNc3nncc4ccc(C(F)(F)F)cc34)C2)CC1` (racemic) [Example 160, N-(1-((1S,4r)-4-((S)-1-hydroxy-2-methylpropyl)cyclohexyl)azetidin-3-yl)-2-((7-(trifluoromethyl)phthalazin-1-yl)amino)acetamide] the figure was 22 nM.

Consider `O=C(CNc1ncnc2ccc(C(F)(F)F)cc12)NC1CN(C2CCC([C@@H](O)C3CC3)CC2)C1` (single isomer, unassigned; (+)) [(+) 6], for which the concentration for half-maximal inhibition (IC50) was found to be 25 nM. In the case of `CC(C)[C@H](O)C1CCC(N2CC(NC(=O)CNc3ncnc4ccc(C(F)(F)F)cc34)C2)CC1` (single isomer, unassigned; (+)) [(+) 8] it was 44 nM; in that of `O=C(CNc1ncnc2ccc(C(F)(F)F)cc12)NC1CN(C2CCC([C@@H](O)C3CC3)CC2)C1` (single isomer, unassigned; (-)) [(−) 6], 8 nM; in that of `CC(C)[C@H](O)C1CCC(N2CC(NC(=O)CNc3ncnc4ccc(C(F)(F)F)cc34)C2)CC1` (single isomer, unassigned; (-)) [(−) 8], 10 nM. In the case of `CC[C@@H](O)[C@H]1CC[C@@H](N2CC(NC(=O)CNc3nccc4ncc(C(F)(F)F)cc34)C2)CC1` (stereo in doubt) [Example 150, N-(1-((1R,4s)-4-((S)-1-hydroxypropyl)cyclohexyl)azetidin-3-yl)-2-((3-(trifluoromethyl)-1,6-naphthyridin-5-yl)amino)acetamide] it was 430 nM; in that of `CC[C@@H](O)[C@H]1CC[C@@H](N2CC(NC(=O)CNc3nncc4ccc(C(F)(F)F)cc34)C2)CC1` (stereo in doubt) [Example 153, N-(1-((1R,4s)-4-((S)-1-hydroxypropyl)cyclohexyl)azetidin-3-yl)-2-((7-(trifluoromethyl)phthalazin-1-yl)amino)acetamide], 15 nM.

As for `CC(C)[C@@H](O)[C@H]1CC[C@@H](N2CC(NC(=O)CNc3nccc4ncc(C(F)(F)F)cc34)C2)CC1` (stereo in doubt) [Example 155, N-(1-((1R,4s)-4-((S)-1-hydroxy-2-methylpropyl)cyclohexyl)azetidin-3-yl)-2-((3-(trifluoromethyl)-1,6-naphthyridin-5-yl)amino)acetamide], the half-inhibitory concentration (IC50) was > 25000 nM. With `O=C(CNc1ncnc2ccc(C(F)(F)F)cc12)NC1CN([C@H]2CC[C@@H]([C@@H](O)C3CC3)CC2)C1` [(+) 4, N-(1-((1S,4s)-4-(cyclopropyl(hydroxy)methyl)cyclohexyl)azetidin-3-yl)-2-((6-(trifluoromethyl)quinazolin-4-yl)amino)acetamide] the figure was 24 nM; with `O=C(CNc1ncnc2ccc(C(F)(F)F)cc12)NC1CN([C@H]2CC[C@@H]([C@@H](O)C3CC3)CC2)C1` [(−) 4, N-(1-((1S,4s)-4-(cyclopropyl(hydroxy)methyl)cyclohexyl)azetidin-3-yl)-2-((6-(trifluoromethyl)quinazolin-4-yl)amino)acetamide], 8 nM; with `O=C(CNc1ncnc2ccc(C(F)(F)F)cc12)NC1CN(C2CCC(c3ncccc3O)CC2)C1` (centres unmarked) [Example 1, N-(1-(4-(3-hydroxypyridin-2-yl)cyclohexyl)azetidin-3-yl)-2-((6-(trifluoromethyl)quinazolin-4-yl)amino)acetamide], 4 nM. As to `O=C(CNc1ncnc2ccc(C(F)(F)F)cc12)NC1CN([C@H]2CC[C@@H](C3CC=CCO3)CC2)C1` (stereo partly drawn) [Example 2, N-(1-((1S,4s)-4-(−3,6-dihydro-2H-pyran-2-yl)cyclohexyl)azetidin-3-yl)-2-((6-(trifluoromethyl)quinazolin-4-yl)amino)acetamide and N-(1-((1S,4r)-4-(3,6-dihydro-2H-pyran-2-yl)cyclohexyl)azetidin-3-yl)-2((6-(trifluoromethyl)quinazolin-4-yl)amino)acetamide], the half-maximal inhibitory concentration (IC50) turned out to be 5 nM. For `O=C(CNc1ncnc2ccc(C(F)(F)F)cc12)NC1CN([C@H]2CC[C@@H](C(O)C3CC3)CC2)C1` (stereo partly drawn) [Example 3, N-(1-((1S,4s)-4-(cyclopropyl(hydroxy)methyl)cyclohexyl)azetidin-3-yl)-2-((6-(trifluoromethyl)quinazolin-4-yl)amino)acetamide], the IC50 was determined as 22 nM. In the case of `[2H][C@]1(N2CC(NC(=O)CNc3ncnc4ccc(C(F)(F)F)cc34)C2)CC[C@@H](C(O)C2CC2)CC1` (stereo partly drawn) [Example 5, N-(1-((1S,4s)-4-(cyclopropyl(hydroxy)methyl)1-deuterocyclohexyl)azetidin-3-yl)-2-((6-(trifluoromethyl)quinazolin-4-yl)amino)acetamide] it was 14 nM; in that of `CC(C)C(O)[C@H]1CC[C@@H](N2CC(NC(=O)CNc3ncnc4ccc(C(F)(F)F)cc34)C2)CC1` (stereo partly drawn) [Example 7, N-(1-((1S,4s)-4-(1-hydroxy-2-methylpropyl)cyclohexyl)azetidin-3-yl)-2-((6-(trifluoromethyl)quinazolin-4-yl)amino)acetamide], 9 nM.

Consider `C=C[C@H]1CC[C@@H](N2CC(NC(=O)CNc3ncnc4ccc(C(F)(F)F)cc34)C2)CC1` [Example 9, 2-((6-(trifluoromethyl)quinazolin-4-yl)amino)-N-(1-((1s,4s)-4-vinylcyclohexyl)azetidin-3-yl)acetamide and 2-((6-(trifluoromethyl)quinazolin-4-yl)amino)-N-(1-((1r,4r)-4-vinylcyclohexyl)azetidin-3-yl)acetamide], for which the IC50 was determined as 9 nM. With `O=C(CNc1ncnc2ccc(C(F)(F)F)cc12)NC1CN([C@H]2CC[C@@H](C3C=CCO3)CC2)C1` (stereo partly drawn) [Example 10, N-(1-((1R,4s)-4-(2,5-dihydrofuran-2-yl)cyclohexyl)azetidin-3-yl)-2-((6-(trifluoromethyl)quinazolin-4-yl)amino)acetamide and N-(1-((1R,4r)-4-(2,5-dihydrofuran-2-yl)cyclohexyl)azetidin-3-yl)-2-((6-(trifluoromethyl)quinazolin-4-yl)amino)acetamide] the figure was 9 nM. In the case of `O=C1C=CCC([C@H]2CC[C@@H](N3CC(NC(=O)CNc4ncnc5ccc(C(F)(F)F)cc45)C3)CC2)N1` (stereo partly drawn) [Example 11, N-(1-((1S,4s)-4-(6-oxo-1,2,3,6-tetrahydropyridin-2-yl)cyclohexyl)azetidin-3-yl)-2-((6-(trifluoromethyl)quinazolin-4-yl)amino)acetamide], the IC50 came to 12 nM. Turning to `O=C(CNc1ncnc2ccc(C(F)(F)F)cc12)NC1CN([C@H]2CC[C@@H](C3CCCC(=O)N3)CC2)C1` (stereo partly drawn) [Example 13, N-(1-((1S,4s)-4-(6-oxopiperidin-2-yl)cyclohexyl)azetidin-3-yl)-2-((6-(trifluoromethyl)quinazolin-4-yl)amino)acetamide], the half-inhibitory concentration (IC50) was 10 nM. With `O=C(CNc1ncnc2ccc(C(F)(F)F)cc12)NC1CN([C@H]2CC[C@@H](C3CCCCO3)CC2)C1` (stereo partly drawn) [Example 14, N-(1-((1S,4s)-4-(tetrahydro-2H-pyran-2-yl)cyclohexyl)azetidin-3-yl)-2-((6-(trifluoromethyl)quinazolin-4-yl)amino)acetamide] the figure was 15 nM; with `O=C(CNc1ncnc2ccc(C(F)(F)F)cc12)NC1CN([C@H]2CC[C@@H](C3CCCO3)CC2)C1` (some centres unmarked) [Example 15], 49 nM. In the case of `O=C(CNc1ncnc2ccc(C(F)(F)F)cc12)NC1CN([C@H]2CC[C@@H](C3COC(=O)N3)CC2)C1` (stereo partly drawn) [Example 16, N-(1-((1R,4s)-4-(2-oxooxazolidin-4-yl)cyclohexyl)azetidin-3-yl)-2-((6-(trifluoromethyl)quinazolin-4-yl)amino)acetamide] it was 35 nM; in that of `O=C(CNc1ncnc2ccc(C(F)(F)F)cc12)NC1CN([C@H]2CC[C@@H](C3CCOC(=O)N3)CC2)C1` (stereo partly drawn) [Example 17, N-(1-((1R,4s)-4-(2-oxo-1,3-oxazinan-4-yl)cyclohexyl)azetidin-3-yl)-2-((6-(trifluoromethyl)quinazolin-4-yl)amino)acetamide], 58 nM; in that of `CSCC(O)[C@H]1CC[C@@H](N2CC(NC(=O)CNc3ncnc4ccc(C(F)(F)F)cc34)C2)CC1` (stereo partly drawn) [Example 18, N-(1-((1S,4s)-4-(1-hydroxy-2-(methylthio)ethyl)cyclohexyl)azetidin-3-yl)-2-((6-(trifluoromethyl)quinazolin-4-yl)amino)acetamide], 10 nM. With `[N-]=[N+]=NCC(O)[C@H]1CC[C@@H](N2CC(NC(=O)CNc3ncnc4ccc(C(F)(F)F)cc34)C2)CC1` (stereo partly drawn) [Example 19, N-(1-((1S,4s)-4-(2-azido-1-hydroxyethyl)cyclohexyl)azetidin-3-yl)-2-((6-(trifluoromethyl)quinazolin-4-yl)amino)acetamide] the figure was 16 nM.

On to `COCC(O)[C@H]1CC[C@@H](N2CC(NC(=O)CNc3ncnc4ccc(C(F)(F)F)cc34)C2)CC1` (stereo partly drawn) [Example 20, N-(1-((1S,4s)-4-(1-hydroxy-2-methoxyethyl)cyclohexyl)azetidin-3-yl)-2-((6-(trifluoromethyl)quinazolin-4-yl)amino)acetamide], for which the half-inhibitory concentration (IC50) is 58 nM.

Regarding `O=C(CNc1ncnc2ccc(C(F)(F)F)cc12)NC1CN([C@H]2CC[C@@H](C3CNC(=O)O3)CC2)C1` (stereo partly drawn) [Example 22, N-(1-((1S,4s)-4-(2-oxooxazolidin-5-yl)cyclohexyl)azetidin-3-yl)-2-((6-(trifluoromethyl)quinazolin-4-yl)amino)acetamide], the IC50 was 64 nM.
